Assay results reported in PMC2804746 (Biochemistry, 2008).

Key:
taTrxR (Ta0984) = target: T1, taTrxR (Ta0984) (Thermoplasma acidophilum, UniProt Q9HJI4); experiment: X-ray crystal structure, […] Å; assay type: binding; details: one FAD per monomer, co-purified; crystals at pH 5.5, room temperature
T1 sequence (Q9HJI4 1-319): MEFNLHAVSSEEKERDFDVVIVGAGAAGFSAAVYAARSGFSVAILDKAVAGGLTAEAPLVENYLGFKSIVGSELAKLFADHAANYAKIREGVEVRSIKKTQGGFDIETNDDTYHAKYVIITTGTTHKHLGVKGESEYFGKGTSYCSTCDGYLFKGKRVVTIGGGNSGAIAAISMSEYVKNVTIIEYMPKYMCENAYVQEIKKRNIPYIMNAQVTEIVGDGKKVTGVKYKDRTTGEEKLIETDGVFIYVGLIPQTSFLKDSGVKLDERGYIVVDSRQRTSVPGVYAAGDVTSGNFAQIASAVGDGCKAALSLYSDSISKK

ecTrxR = ecTrxR (Escherichia coli, UniProt P0A9P4); experiment: anaerobic titration, reduction of bound FAD by visible spectra; assay type: biochemical; details: 50 mM TRIS, pH 7.5, 150 mM NaCl, 25 °C
Chain of ecTrxR (P0A9P4 2-321): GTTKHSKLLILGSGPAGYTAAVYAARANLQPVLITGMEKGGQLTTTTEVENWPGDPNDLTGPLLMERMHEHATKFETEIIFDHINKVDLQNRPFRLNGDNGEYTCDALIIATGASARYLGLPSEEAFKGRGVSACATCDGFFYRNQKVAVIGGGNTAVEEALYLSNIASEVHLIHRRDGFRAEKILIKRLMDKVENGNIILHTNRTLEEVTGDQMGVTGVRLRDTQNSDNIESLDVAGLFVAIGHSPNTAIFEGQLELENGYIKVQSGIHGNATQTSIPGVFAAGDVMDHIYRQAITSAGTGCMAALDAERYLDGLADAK

Row | Structure (SMILES) | X-ray crystal structure, 2.35 Å; visible absorption spectrum (taTrxR (Ta0984)) | anaerobic titration, reduction of bound FAD by visible spectra (ecTrxR)
1 | Cc1cc2nc3c(=O)[nH]c(=O)nc-3n(C[C@H](O)[C@H](O)[C@H](O)COP(=O)(O)OP(=O)(O)OC[C@H]3O[C@@H](n4cnc5c(N)ncnc54)[C@H](O)[C@@H]3O)c2cc1C [FAD] | The taTrxR structure has one FAD molecule bound in a similar conformation as the ecTrxR structure | –
2 | NC(=O)C1=CN([C@@H]2O[C@H](COP(=O)(O)OP(=O)(O)OC[C@H]3O[C@@H](n4cnc5c(N)ncnc54)[C@H](O)[C@@H]3O)[C@@H](O)[C@H]2O)C=CC1 [NADH] | – | NADH does reduce the flavin to some extent in this protein
3 | NC(=O)C1=CN([C@@H]2O[C@H](COP(=O)(O)OP(=O)(O)OC[C@H]3O[C@@H](n4cnc5c(N)ncnc54)[C@H](OP(=O)(O)O)[C@@H]3O)[C@@H](O)[C@H]2O)C=CC1 [NADPH] | – | titration of ecTrxR with NADPH results in a rapid reduction of the bound FAD
